Counter-ions that a name gives are not always drawn.
How the values were obtained:
[1] = system: AMPA-induced neuronal damage in primary cortical neuronal cultures; assay: AMPA-induced neuronal damage in primary cortical neuronal cultures, LDH release; assay type: cell-based; conditions: long-term exposure to 100 μM AMPA
Protocol: To functionally measure AMPA antagonist activity, the effects of the agent on AMPA-induced neuronal damage in primary cortical neuronal cultures was examined using techniques similar to those outlined by Koh, J.-Y. et al., J. Neurosci, 1990; 10:693. The neuronal damage produced by long-term exposure to 100 μM AMPA was measured by the release of the cytosolic enzyme lactate dehydrogenase (LDH).
Selected compounds of the present invention were tested by one or more of the above-described assays. The IC50 values set forth in Tables 1 and 2 are a measure of the concentration (μM) of the test substance which inhibits 50% of an induced release from the tested receptors.

[2] = target: kainate site (non-NMDA receptor); assay: Kainate site (non-NMDA receptor) binding affinity (London and Coyle)
[3] = target: T1, glycine site of the NMDA receptor (Rattus norvegicus, UniProt P35439); assay: Glycine site of the NMDA receptor binding affinity (Jones et al.)
T1 construct: from tissue

AMPA receptors = assay: AMPA receptor binding affinity (Honore et al.)
[4] = Table 1, cyclohexyl-fused analogs
[5] = Table 2, cyclopentyl-fused analogs

SMILES	IC50 [2, 4]	IC50 [3, 4]	IC50 (AMPA receptors; [4])	IC50 [2, 5]	IC50 [3, 5]	IC50 (AMPA receptors; [5])	IC50 [1, 4]	IC50 [1, 5]
CC(=O)NC1CCc2c([N+](=O)[O-])cc3[nH]c(=O)c(=O)[nH]c3c2C1 (stereo not drawn) [Example 17, N-(6-nitro-2,3-dioxo-1,2,3,4,7,8,9,10-octahydro-benzo[f]quinoxalin-9-yl)-acetamide]	2.2 µM	0.62 µM	0.56 µM				> 30 µM	
O=C(NC1CCc2c([N+](=O)[O-])cc3[nH]c(=O)c(=O)[nH]c3c2C1)c1ccccc1 (stereo not drawn) [Example 36, N-(6-nitro-2,3-dioxo-1,2,3,4,7,8,9,10-octahydrobenzo[f]quinoxalin-9-yl)-benzamide]	0.9 µM	0.09 µM	0.42 µM				30 µM	
O=C(NC1Cc2c([N+](=O)[O-])cc3[nH]c(=O)c(=O)[nH]c3c2C1)c1ccoc1 (stereo not drawn) [Example 59, Furan-3-carboxylic acid (6-nitro-2,3-dioxo-2,3,4,7,8,9-hexahydro-1H-cyclopenta[f]quinoxalin-8-yl)-amide]				0.38 µM	> 1 µM	0.14 µM		14 µM
O=C(NC1Cc2c([N+](=O)[O-])cc3[nH]c(=O)c(=O)[nH]c3c2C1)c1cccnc1 (stereo not drawn) [Example 61, N-(6-Nitro-2,3-dioxo-2,3,4,7,8,9-hexahydro-1H-cyclopenta[f]quinoxalin-8-yl)-nicotinamide]				1.03 µM	> 1 µM	0.2 µM		28 µM
O=C(NC1Cc2c([N+](=O)[O-])cc3[nH]c(=O)c(=O)[nH]c3c2C1)C1(O)OC(O)C(O)C1O (stereo not drawn) [Example 63, 2,3,4,5-Tetrahydroxy-tetrahydro-furan-2-carboxylic acid (6-nitro-2,3-dioxo-2,3,4,7,8,9-hexahydro-1H-cyclopenta[f]quinoxalin-8-yl)-amide]				1.1 µM	> 1 µM	0.58 µM		> 30 µM

Continued, in another order:

IC50 [2, 4]	IC50 [3, 4]	IC50 (AMPA receptors; [4])	IC50 [2, 5]	IC50 [3, 5]	IC50 (AMPA receptors; [5])	SMILES	IC50 [1, 4]	IC50 [1, 5]
2.8 µM	1.8 µM	0.7 µM				NC1CCc2c([N+](=O)[O-])cc3[nH]c(=O)c(=O)[nH]c3c2C1 (stereo not drawn) [Example 15, 9-amino-6-nitro-1,4,7,8,9,10-hexahydro-benzo[f]quinoxaline-2,3-dione]	20 µM	
			0.48 µM	0.4 µM	0.11 µM	O=C(NC1Cc2c([N+](=O)[O-])cc3[nH]c(=O)c(=O)[nH]c3c2C1)c1ccccc1 (stereo not drawn) [Example 39, N-(6-nitro-2,3-dioxo-4,7,8,9-tetrahydro-1H-cyclopenta[f]quinoxalin-8-yl)-benzamide]		18 µM
0.82 µM	0.28 µM	0.27 µM				O=C(NC1CCc2c([N+](=O)[O-])cc3[nH]c(=O)c(=O)[nH]c3c2C1)C1CCNCC1 (stereo not drawn) [Example 40, 4-(6-nitro-2,3-dioxo-1,2,3,4,7,8,9,10-octahydrobenzo[f]quinoxaline-9-ylcarbamoyl)-piperidine hydrochloride]	25 µM	
			0.36 µM	0.4 µM	0.1 µM	O=C(NC1Cc2c([N+](=O)[O-])cc3[nH]c(=O)c(=O)[nH]c3c2C1)c1ccsc1 (stereo not drawn) [Example 60, Thiophene-3-carboxylic acid (6-nitro-2,3-dioxo-2,3,4,7,8,9-hexahydro-1H-cyclopenta[f]quinoxalin-8-yl)amide]		14 µM

— patent US5721234A, “Glutamate receptor antagonists: fused cycloalkylouinoxalinediones” (Warner-Lambert Company, priority 1995, dated 1998)
